Laboratory results published in US20170128489A1 (priority 2014, published 2017).

In the case of NC(=O)CN(CC(N)=O)C1CCCCCCC1 [CO-IDAm, Cyclooctylimidodiacetamide], the melting point is reported as 152 to 154 °C.
